What all share (format): cell-based
The subject of one test is IL-1β. Briefly: Inhibition of IL-1β secretion in LPS stimulated peripheral blood mononuclear cells (ELISA). Particulars: PBMC; LPS stimulated human peripheral blood mononuclear cells; compounds added 30 minutes before LPS; incubated 18 hours; read-out: The median inhibition concentration (IC50, nM) of IL-1β. On the procedure: (§1) To study the effect of the compound of the present invention in vitro the inhibition of the IL-1β and TNF-α secretion was measured using the following procedure:
(§2) Cytokine production was measured in the media from lipopolysaccharide (LPS) stimulated peripheral blood mononuclear cells. The mononuclear cells were isolated from human peripheral blood by Lymphoprep® (Nycomed, Norway) fractionation and suspended in RPMI 1640 (growth medium) with foetal calv serum (FCS, 2%), at a concentration of 5 x 10^5 cells/ml. The cells were incubated in 24-well tissue culture plates in 1 ml aliquots. Test compounds were dissolved in dimethylsulfoxide (DMSO, 10 mM) and were diluted with the medium. Compounds were added to the cells for 30 minutes, then LPS ([…] final concentration) was added. The plates were incubated for 18 hours, and the concentration of IL-1β and TNF-α in the medium was determined by enzyme-linked immunosorbent assays. The median inhibitory concentrations (IC50) of the compounds were calculated.
A general note: In an ELISA, binding on a coated surface is turned into a signal by an enzyme label.

Test [1] deals with Human polymorphonuclear (PMN) granulocytes. Briefly: Inhibition of PMN superoxide secretion (superoxide dismutase inhibitable reduction of ferricytochrome C). Particulars: human PMN granulocytes primed with TNF-α (3 ng/ml), stimulated with fMLP (10^-7 M); read-out: The median inhibition concentration (IC50, nM) of PMN-superoxide. On the procedure:
The compounds of the present invention also show similar activities in the ability to inhibit PMN (polymorphonuclear) superoxide secretion which is also indicative of potentially useful anti-inflammatory drugs. The compounds were tested using the following procedure: Human polymorphonuclear (PMN) granulocytes were isolated from human blood by dextran sedimentation, Lymphoprep® fractionation and hypotonic lysis of contaminating erythrocytes. Superoxide anion generation was measured as the superoxide dismutase inhibitable reduction of ferricytochrome C (Madhu, S.B. et al, Inflammation, 16, 241, (1992)). The cells were suspended in Hanks' balanced salt solution, and incubated for 10 minutes at 37°C with test compounds. The cells were primed by the addition of TNF-α (3 ng/ml final concentration) for 10 minutes, and then ferricytochrome C, (final concentration 750µg/ml), bovine serum albumin (BSA, final concentration 1 mg/ml) and formyl-methionyl-leucyl-phenylalanine (fMLP, final concentration 10^-7 M) were added for 3 minutes. The cells were chilled on ice, and were spun down. The optical densities in the cell-free supernatant was measured in a spectrophotometer. The median inhibitory concentration (IC50) of the compounds was calculated.

Another test concerns TNF-α. Briefly: Inhibition of TNF-α secretion in LPS stimulated peripheral blood mononuclear cells (ELISA). Particulars: PBMC; LPS stimulated human peripheral blood mononuclear cells; compounds added 30 minutes before LPS; incubated 18 hours; read-out: The median inhibition concentration (IC50, nM) of TNF-α. How it is done:
as §1, §2

For the compound `CC(=O)OCOC(=O)Nc1ccccc1Nc1ccc(C(=O)c2ccccc2C)c(Cl)c1` [Compound 109, 1-Acetoxymethyl N-[2-[3-chloro-4-(2-methylbenzoyl)-phenylamino]phenyl]carbamate], the IC50 stood at 32 nM in the test on IL-1β, 40 nM in test [1] and 6.3 nM in the test with TNF-α.
Consider `CCOC(=O)Nc1ccccc1Nc1ccc(C(=O)c2ccccc2C)c(Cl)c1` [ref. b), Ethyl N-[2-[3-chloro-4-(2-methylbenzoyl)-phenylamino]phenyl]carbamate], for which the IC50 in the test on IL-1β stood at 32 nM; in test [1] it was 5 nM; in the test with TNF-α it was 5 nM.
As for `Cc1ccccc1C(=O)c1ccc(Nc2ccccc2NC(=O)Oc2ccccc2)cc1Cl` [Compound 105, Phenyl N-[2-[3-chloro-4-(2-methylbenzoyl)-phenylamino]phenyl]carbamate], the IC50 in the test with IL-1β came out at 50 nM; in test [1] it was 100 nM; in the test with TNF-α, 10 nM.
In the same order, the values of `Cc1ccccc1C(=O)c1ccc(Nc2ccccc2N)cc1Cl` [ref. a), 4-(2-Aminophenylamino)-2-chloro-2'-methylbenzophenone] are 13 nM, 5 nM and 7.1 nM.
